Our source for the pest or weed control values is patent publication US9204653B2, “5-fluoro pyrimidine derivatives” (DOW AGROSCIENCES LLC, priority 2008, dated 2015).

This assay has as its system Mycosphaerella graminicola; Anamorph: Septoria tritici; Bayer Code SEPTTR. Put plainly: Leaf blotch of wheat, foliar fungicide treatment, one day protectant (1DP) or three day curative (3DC). It counts as in vivo, Septoria tritici on wheat plants (variety Yuma). To be noted: Zymoseptoria tritici; for pest or weed control at 50 ppm / pest or weed control at 200 ppm: % disease control rating.

The mark [1] stands for this setting: 24 h, one day protectant (1DP), 25 ppm (first 1DP column), percent control rating, read-out: SETTTR 1DP 25 ppm.
[2] abbreviates: 24 h, one day protectant (1DP), 25 ppm as printed (second 1DP column), percent control rating, read-out: SETTTR 1DP 25 ppm.
Setting [3] is: 72 h, three day curative (3DC), 25 ppm, percent control rating, read-out: SEPTTR 3DC 25 ppm.
Setting [4] is: 72 h, three day curative (3DC), percent control rating, read-out: SEPTTR 3DC 100 ppm.
[5] abbreviates: 24 h, one day protectant (1DP), 25 ppm, rating of percent disease control, read-out: SETTTR 1DP 25 ppm.
The mark [6] stands for this setting: 24 h, one day protectant (1DP), rating of percent disease control, read-out: SEPTTR 1DP 100 ppm.
Setting [7] is: 72 h, three day curative (3DC), 25 ppm, rating of percent disease control, read-out: SEPTTR 3DC 25 ppm.
[8] abbreviates: 72 h, three day curative (3DC), rating of percent disease control, read-out: SEPTTR 3DC 100 ppm.
Where [9] appears, read: 24 h, one day protectant (1DP), 25 ppm, percent disease control rating, read-out: SETTTR 1DP 25 ppm.
Setting [10] is: 24 h, one day protectant (1DP), percent disease control rating, read-out: SEPTTR 1DP 100 ppm.
Where [11] appears, read: 72 h, three day curative (3DC), 25 ppm, percent disease control rating, read-out: SEPTTR 3DC 25 ppm.
Setting [12] is: 72 h, three day curative (3DC), percent disease control rating, read-out: SEPTTR 3DC 100 ppm.
Setting [13] is: 24 h, one day protectant, 25 ppm, rating of percent disease control, read-out: SETTTR 1DP 25 ppm.
[14] abbreviates: 24 h, one day protectant, rating of percent disease control, read-out: SEPTTR 1DP 100 ppm.
[15] abbreviates: 72 h, three day curative, 25 ppm, rating of percent disease control, read-out: SEPTTR 3DC 25 ppm.
[16] abbreviates: 72 h, three day curative, rating of percent disease control, read-out: SEPTTR 3DC 100 ppm.

Where two headings read alike, the source gives them in different places.

In the case of `COc1ncc(F)c(NO[Si](C)(C)C(C)(C)C)n1` [Compound 1079], the pest or weed control at 25 ppm was in the range of 0 to 25% under setting [1], 0 to 25% under setting [2] and 0 to 25% under setting [3]. The pest or weed control at 100 ppm under setting [4] lay in the range of 0 to 25%.
On to `CC(Oc1ncc(F)c(N)n1)c1ccc(Oc2ccccc2)cc1` (stereo not drawn) [Compound 474], for which the pest or weed control at 25 ppm was 76 to 100% under setting [5] and 76 to 100% under setting [7]. The pest or weed control at 100 ppm runs as follows: under setting [6], 76 to 100%; under setting [8], 76 to 100%.
For the setting “24 h, one day protectant”, `Fc1cnc(OCc2ccc(Cl)cc2)nc1NCc1ccc2c(c1)OCO2` [Compound 842] registered a pest or weed control at 50 ppm of 76 to 100% and a pest or weed control at 200 ppm of 76 to 100%.
For the setting “24 h, one day protectant”, `Cc1ccc(COc2ncc(F)c(NC3CC3)n2)cc1` [Compound 881] registered a pest or weed control at 50 ppm of 76 to 100% and a pest or weed control at 200 ppm of 76 to 100%.
`Nc1nc(OCc2snc(Cl)c2Cl)ncc1F` [Compound 442]: the pest or weed control at 25 ppm reads like this: under setting [5], 76 to 100%; under setting [7], 76 to 100%. The pest or weed control at 100 ppm under setting [6] fell in the range of 76 to 100% and the pest or weed control at 100 ppm under setting [8] fell in the range of 76 to 100%.
For `COc1ccccc1CN(C)c1nc(O)ncc1F` [Compound 1070], the pest or weed control at 25 ppm is, setting by setting: under setting [1], 26 to 50%; under setting [2], 0 to 25%; under setting [3], 0 to 25%. Also, the pest or weed control at 100 ppm under setting [4] is 0 to 25%.
Where the note is “24 h, one day protectant”, `Fc1ccc(COc2ncc(F)c(NCc3ccc(Cl)cc3)n2)cc1` [Compound 840] displayed a pest or weed control at 50 ppm of 51 to 75% and a pest or weed control at 200 ppm of 76 to 100%.
Consider `C=CCOc1ncc(F)c(N(O)Cc2ccccc2)n1` [Compound 1088], for which the pest or weed control at 25 ppm by setting is: under setting [1], 0 to 25%; under setting [2], 26 to 50%; under setting [3], 0 to 25%. Under setting [4], the pest or weed control at 100 ppm was in the range of 0 to 25%.
Take `N#Cc1cccc(COc2ncc(F)c(NCOCc3ccccc3)n2)c1` [Compound 167]: the pest or weed control at 25 ppm was 0 to 25% under setting [9] and 0 to 25% under setting [11]. Also, the pest or weed control at 100 ppm is, setting by setting: under setting [10], 26 to 50%; under setting [12], 0 to 25%.
`COCNc1nc(OCc2ccc(F)cc2)ncc1F` [Compound 362]: the pest or weed control at 25 ppm under setting [5] lay within 51 to 75% and the pest or weed control at 25 ppm under setting [7] lay within 51 to 75%. Further, the pest or weed control at 100 ppm was 76 to 100% under setting [6] and 76 to 100% under setting [8].
Take `CC(C)(C)C(=O)OCOc1ncc(F)c(NC=O)n1` [Compound 1113]: the pest or weed control at 25 ppm under setting [1] lay within 76 to 100%, the pest or weed control at 25 ppm under setting [2] was 76 to 100% and the pest or weed control at 25 ppm under setting [3] was in the range of 76 to 100%. For the same compound, the pest or weed control at 100 ppm under setting [4] fell in the range of 76 to 100%.
Take `CC(C)C(=O)Oc1ncc(F)c(/N=C/N(C)C)n1` [Compound 420]: the pest or weed control at 25 ppm runs as follows: under setting [5], 76 to 100%; under setting [7], 76 to 100%. Also, the pest or weed control at 100 ppm reads like this: under setting [6], 76 to 100%; under setting [8], 76 to 100%.
Regarding `O=[N+]([O-])c1ccccc1SNc1nc(OCc2c(F)cc(Br)cc2F)ncc1F` [Compound 479], the pest or weed control at 25 ppm reads like this: under setting [5], 76 to 100%; under setting [7], 51 to 75%. Besides, the pest or weed control at 100 ppm is, setting by setting: under setting [6], 76 to 100%; under setting [8], 51 to 75%.
`CC(C)Oc1ncc(F)c(N)n1` [Compound 267]: the pest or weed control at 25 ppm by setting is: under setting [5], 0 to 25%; under setting [7], 0 to 25%. In addition, the pest or weed control at 100 ppm reads like this: under setting [6], 0 to 25%; under setting [8], 0 to 25%.
`Fc1ccc(COc2ncc(F)c(NC3CC3)n2)c(F)c1` [Compound 834] showed a pest or weed control at 200 ppm (24 h, one day protectant) of 76 to 100%.
Consider `O=C(Nc1nc(OCc2ccc(F)cc2)ncc1F)OCCl` [Compound 262], for which the pest or weed control at 25 ppm reads like this: under setting [5], 51 to 75%; under setting [7], 76 to 100%. Further, the pest or weed control at 100 ppm fell in the range of 76 to 100% under setting [6] and 76 to 100% under setting [8].
Consider `N#Cc1cccc(COc2ncc(F)c(/N=C/N3CCOCC3)n2)c1` [Compound 177], for which the pest or weed control at 25 ppm reads like this: under setting [9], 76 to 100%; under setting [11], 76 to 100%. The pest or weed control at 100 ppm under setting [10] is 76 to 100% and the pest or weed control at 100 ppm under setting [12] was 76 to 100%.
Take `Oc1ncc(F)c(N(O)Cc2ccccc2)n1` [Compound 1094]: the pest or weed control at 25 ppm under setting [1] was in the range of 0 to 25%, the pest or weed control at 25 ppm under setting [2] was 0 to 25% and the pest or weed control at 25 ppm under setting [3] lay in the range of 26 to 50%. The pest or weed control at 100 ppm under setting [4] is 26 to 50%.
For the compound `CC[Si](CC)(CC)Nc1nc(OCc2cccc(C#N)c2)ncc1F` [Compound 599], the pest or weed control at 25 ppm under setting [13] lay in the range of 51 to 75% and the pest or weed control at 25 ppm under setting [15] was 76 to 100%. Besides, the pest or weed control at 100 ppm was 76 to 100% under setting [14] and 76 to 100% under setting [16].
Turning to `CC(C)c1ccc(COc2ncc(F)c(N)n2)cc1` [Compound 197], the pest or weed control at 25 ppm is, setting by setting: under setting [5], 51 to 75%; under setting [7], 51 to 75%. Moreover, the pest or weed control at 100 ppm is, setting by setting: under setting [6], 76 to 100%; under setting [8], 76 to 100%.
For `Cc1ccc(COc2ncc(F)c(NC(=O)OCc3ccccc3)n2)cc1` [Compound 613], the pest or weed control at 25 ppm runs as follows: under setting [13], 76 to 100%; under setting [15], 76 to 100%. The pest or weed control at 100 ppm lay within 76 to 100% under setting [14] and 76 to 100% under setting [16].
Regarding `C=CCOc1ncc(F)c(N/N=C/C(C)=C/C)n1` [Compound 1063], the pest or weed control at 25 ppm runs as follows: under setting [1], 0 to 25%; under setting [2], 0 to 25%; under setting [3], 0 to 25%. Further, the pest or weed control at 100 ppm under setting [4] lay within 0 to 25%.
For `Oc1ncc(F)c(N/N=C/c2ccco2)n1` [Compound 1112], the pest or weed control at 25 ppm runs as follows: under setting [1], 0 to 25%; under setting [2], 0 to 25%; under setting [3], 0 to 25%. Further, the pest or weed control at 100 ppm under setting [4] lay within 26 to 50%.
Take `O=C(Nc1ccsc1)Nc1nc(OCCc2ccc(Cl)cc2)ncc1F` [Compound 697]: the pest or weed control at 25 ppm by setting is: under setting [13], 0 to 25%; under setting [15], 26 to 50%. Moreover, the pest or weed control at 100 ppm was 0 to 25% under setting [14] and 26 to 50% under setting [16].
Take `O=C(/C=C/c1ccccc1)Nc1nc(O)ncc1F` [Compound 974]: the pest or weed control at 25 ppm under setting [1] lay within 51 to 75%, the pest or weed control at 25 ppm under setting [2] was 76 to 100% and the pest or weed control at 25 ppm under setting [3] was 51 to 75%. Besides, the pest or weed control at 100 ppm under setting [4] is 26 to 50%.
Consider `Fc1cnc(OCc2ccccc2)nc1NNc1ccccc1` [Compound 282], for which the pest or weed control at 25 ppm is, setting by setting: under setting [5], 0 to 25%; under setting [7], 26 to 50%. Moreover, the pest or weed control at 100 ppm fell in the range of 26 to 50% under setting [6] and 51 to 75% under setting [8].
For `O=C(NCc1ccccc1F)Nc1nc(OCc2cccc(F)c2)ncc1F` [Compound 98], the pest or weed control at 25 ppm under setting [9] was in the range of 0 to 25% and the pest or weed control at 25 ppm under setting [11] was in the range of 0 to 25%. Moreover, the pest or weed control at 100 ppm lay within 0 to 25% under setting [10] and 0 to 25% under setting [12].
For the compound `O=[N+]([O-])c1ccccc1SNc1nc(OCc2ccc3c(c2)OCO3)ncc1F` [Compound 151], the pest or weed control at 25 ppm reads like this: under setting [9], 0 to 25%; under setting [11], 26 to 50%. In addition, the pest or weed control at 100 ppm lay in the range of 0 to 25% under setting [10] and 26 to 50% under setting [12].
Take `Nc1nc(OCc2ccc(O)cc2)ncc1F` [Compound 284]: the pest or weed control at 25 ppm is, setting by setting: under setting [5], 0 to 25%; under setting [7], 0 to 25%. The pest or weed control at 100 ppm reads like this: under setting [6], 0 to 25%; under setting [8], 0 to 25%.
`COc1ccc(Oc2ncc(F)c(NCO)n2)cc1` [Compound 113]: the pest or weed control at 25 ppm by setting is: under setting [9], 51 to 75%; under setting [11], 0 to 25%. In addition, the pest or weed control at 100 ppm is 76 to 100% under setting [10] and 26 to 50% under setting [12].
For `Fc1ccc(COc2ncc(F)c(NNC3CCCCC3)n2)cc1` [Compound 492], the pest or weed control at 25 ppm is, setting by setting: under setting [5], 0 to 25%; under setting [7], 0 to 25%. The pest or weed control at 100 ppm under setting [6] was in the range of 26 to 50% and the pest or weed control at 100 ppm under setting [8] was 26 to 50%.
For the compound `CCCNC(=O)Nc1nc(OCc2cccc(F)c2)ncc1F` [Compound 566], the pest or weed control at 25 ppm under setting [13] was 0 to 25% and the pest or weed control at 25 ppm under setting [15] was in the range of 0 to 25%. For the same compound, the pest or weed control at 100 ppm under setting [14] is 0 to 25% and the pest or weed control at 100 ppm under setting [16] is 0 to 25%.
Consider `Fc1cnc(OCc2ccccc2)nc1N/N=C/C1CC1` [Compound 105], for which the pest or weed control at 25 ppm by setting is: under setting [9], 0 to 25%; under setting [11], 0 to 25%. Moreover, the pest or weed control at 100 ppm under setting [10] was 0 to 25% and the pest or weed control at 100 ppm under setting [12] is 0 to 25%.
